Experimental data reported in US9458137B2, “Substituted indol-5-ol derivatives and their therapeutical applications” (NantBioScience, Inc., priority 2012, dated 2016).

Columns and labels:
Assay in all cases: Kinase panel activity
Assay type in all cases: biochemical
Details in all cases: 0.1 μM, ATP Km
BTK(h) = BTK(h) (Homo sapiens, UniProt Q06187)
Protocol: (§1) The effect of NTW-3475 on kinase activity was tested for a wide range of kinases and is shown in Table 2: Summary Sheet, Activity % ATP Concentration: Km

PDGFRβ(h) = PDGFRβ(h) (Homo sapiens, UniProt P09619)
Protocol: as §1

AMPKα1(h) = AMPKα1(h) (Homo sapiens, UniProt Q13131)
Protocol: as §1

Lyn(m) = Lyn(m) (Mus musculus, UniProt P25911)
Protocol: as §1

CaMKIV(h) = CaMKIV(h) (Homo sapiens, UniProt Q16566)
Protocol: as §1

Ab1(Q252H)(h) = Ab1(Q252H)(h) (Homo sapiens, UniProt P00519, Q252H)
Protocol: as §1

Lyn(h) = Lyn(h) (Homo sapiens, UniProt P07948)
Protocol: as §1

EGFR(L861Q)(h) = target: T1, EGFR(L861Q)(h) (Homo sapiens, UniProt P00533, L861Q)
T1 construct: purchased Millipore (KinaseProfiler service)
Protocol: as §1

IRR(h) = IRR(h) (Homo sapiens, UniProt P14616)
Protocol: as §1

mTOR/FKBP12(h) = mTOR/FKBP12(h) (Homo sapiens, UniProt P42345)
Protocol: as §1

Pim-2(h) = Pim-2(h) (Homo sapiens, UniProt Q9P1W9)
Protocol: as §1

Arg(m) = Arg(m) (Mus musculus, UniProt Q4JIM5)
Protocol: as §1

Txk(h) = Txk(h) (Homo sapiens, UniProt P42681)
Protocol: as §1

TAO2(h) = target: T2, TAO2(h) (Homo sapiens, UniProt Q9UL54)
T2 construct: purchased Millipore (KinaseProfiler service)
Protocol: as §1

SAPK2a(T106M)(h) = target: T3, SAPK2a(T106M)(h) (Homo sapiens, UniProt Q16539, T106M)
T3 construct: purchased Millipore (KinaseProfiler service)
Protocol: as §1

Aurora-C(h) = Aurora-C(h) (Homo sapiens, UniProt Q9UQB9)
Protocol: as §1

IKKβ(h) = IKKβ(h) (Homo sapiens, UniProt O14920)
Protocol: as §1

MSK2(h) = target: T4, MSK2(h) (Homo sapiens, UniProt O75676)
T4 construct: purchased Millipore (KinaseProfiler service)
Protocol: as §1

PKC ? (h) = PKC ? (h) (Homo sapiens, UniProt Q02156)
Protocol: as §1

JAK3(h) = JAK3(h) (Homo sapiens, UniProt P52333)
Protocol: as §1

MAPK2(h) = MAPK2(h) (Homo sapiens, UniProt P28482)
Protocol: as §1

Src(T341M)(h) = target: T5, Src(T341M)(h) (Homo sapiens, UniProt P12931, T341M)
T5 construct: purchased Millipore (KinaseProfiler service)
Protocol: as §1

Met(Y1248H)(h) = target: T6, Met(Y1248H)(h) (Homo sapiens, UniProt P08581, Y1230H)
T6 construct: purchased Millipore (KinaseProfiler service)
Protocol: as §1

DMPK(h) = DMPK(h) (Homo sapiens, UniProt Q09013)
Protocol: as §1

Aurora-A(h) = target: T7, Aurora-A(h) (Homo sapiens, UniProt O14965)
T7 construct: purchased Millipore (KinaseProfiler service)
Protocol: as §1

JAK2(h) = JAK2(h) (Homo sapiens, UniProt O60674)
Protocol: as §1

SIK(h) = target: T8, SIK(h) (Homo sapiens, UniProt P57059)
T8 construct: purchased Millipore (KinaseProfiler service)
Protocol: as §1

Mnk2(h) = target: T9, Mnk2(h) (Homo sapiens, UniProt Q9HBH9)
T9 construct: purchased Millipore (KinaseProfiler service)
Protocol: as §1

Pyk2(h) = target: T10, Pyk2(h) (Homo sapiens, UniProt Q14289)
T10 construct: purchased Millipore (KinaseProfiler service)
Protocol: as §1

MRCKα(h) = target: T11, MRCKα(h) (Homo sapiens, UniProt Q5VT25)
T11 construct: purchased Millipore (KinaseProfiler service)
Protocol: as §1

P1k1(h) = P1k1(h) (Homo sapiens, UniProt P53350)
Protocol: as §1

PAK4(h) = PAK4(h) (Homo sapiens, UniProt O96013)
Protocol: as §1

Snk(h) = target: T12, Snk(h) (Homo sapiens, UniProt Q9NYY3)
T12 construct: purchased Millipore (KinaseProfiler service)
Protocol: as §1

PDK1(h) = PDK1(h) (Homo sapiens, UniProt O15530)
Protocol: as §1

F1t3(h) = F1t3(h) (Homo sapiens, UniProt P36888)
Protocol: as §1

MKK7β(h) = target: T13, MKK7β(h) (Homo sapiens, UniProt O14733)
T13 construct: purchased Millipore (KinaseProfiler service)
Protocol: as §1

MKK4(m) = target: T14, MKK4(m) (Mus musculus, UniProt P47809)
T14 construct: purchased Millipore (KinaseProfiler service)
Protocol: as §1

PAK5(h) = PAK5(h) (Homo sapiens, UniProt Q9P286)
Protocol: as §1

NEK7(h) = NEK7(h) (Homo sapiens, UniProt Q8TDX7)
Protocol: as §1

BrSK2(h) = BrSK2(h) (Homo sapiens, UniProt Q8IWQ3)
Protocol: as §1

T14 sequence (P47809 whole entry): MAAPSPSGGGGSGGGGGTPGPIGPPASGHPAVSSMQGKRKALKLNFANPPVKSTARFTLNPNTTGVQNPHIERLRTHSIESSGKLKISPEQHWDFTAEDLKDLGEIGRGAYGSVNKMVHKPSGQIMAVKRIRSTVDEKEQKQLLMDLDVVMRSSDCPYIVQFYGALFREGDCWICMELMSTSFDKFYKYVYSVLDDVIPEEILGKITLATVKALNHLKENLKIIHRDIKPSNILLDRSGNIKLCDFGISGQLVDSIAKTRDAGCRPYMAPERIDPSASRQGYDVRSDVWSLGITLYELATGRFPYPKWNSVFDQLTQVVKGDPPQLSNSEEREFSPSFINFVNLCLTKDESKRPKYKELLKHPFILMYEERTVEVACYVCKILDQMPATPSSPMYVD
Arg(m), sequence (Q4JIM5 whole entry): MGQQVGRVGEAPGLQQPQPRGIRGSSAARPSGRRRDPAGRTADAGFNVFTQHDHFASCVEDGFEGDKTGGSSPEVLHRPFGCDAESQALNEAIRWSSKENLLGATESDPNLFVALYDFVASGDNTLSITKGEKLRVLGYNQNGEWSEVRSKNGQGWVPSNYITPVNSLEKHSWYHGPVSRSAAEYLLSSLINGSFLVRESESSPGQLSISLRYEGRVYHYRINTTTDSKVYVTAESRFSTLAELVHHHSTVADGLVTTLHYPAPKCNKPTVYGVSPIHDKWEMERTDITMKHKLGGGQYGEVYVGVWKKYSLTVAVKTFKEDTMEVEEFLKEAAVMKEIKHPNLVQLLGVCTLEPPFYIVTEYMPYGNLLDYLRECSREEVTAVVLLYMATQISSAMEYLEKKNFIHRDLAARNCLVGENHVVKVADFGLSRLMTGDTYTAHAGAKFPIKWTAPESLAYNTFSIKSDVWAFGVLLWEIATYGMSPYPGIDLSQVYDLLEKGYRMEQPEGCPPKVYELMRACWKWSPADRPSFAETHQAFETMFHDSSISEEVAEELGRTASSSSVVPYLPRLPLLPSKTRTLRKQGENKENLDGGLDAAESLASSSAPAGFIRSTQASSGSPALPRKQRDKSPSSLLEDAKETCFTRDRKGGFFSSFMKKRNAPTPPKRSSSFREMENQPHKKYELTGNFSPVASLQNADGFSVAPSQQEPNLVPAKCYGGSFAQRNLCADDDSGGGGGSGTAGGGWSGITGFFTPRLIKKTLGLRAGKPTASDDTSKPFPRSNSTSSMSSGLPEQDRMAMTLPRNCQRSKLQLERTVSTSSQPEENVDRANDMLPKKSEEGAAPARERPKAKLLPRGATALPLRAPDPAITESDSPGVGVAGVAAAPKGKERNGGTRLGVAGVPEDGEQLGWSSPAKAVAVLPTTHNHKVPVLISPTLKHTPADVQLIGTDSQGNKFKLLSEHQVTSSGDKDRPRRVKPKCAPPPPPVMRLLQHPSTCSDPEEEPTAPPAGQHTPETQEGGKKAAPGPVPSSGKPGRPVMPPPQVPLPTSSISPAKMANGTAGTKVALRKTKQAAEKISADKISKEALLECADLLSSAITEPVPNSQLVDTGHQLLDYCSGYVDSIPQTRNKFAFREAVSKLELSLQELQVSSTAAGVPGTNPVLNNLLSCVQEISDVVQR
Aurora-C(h), sequence (Q9UQB9 whole entry): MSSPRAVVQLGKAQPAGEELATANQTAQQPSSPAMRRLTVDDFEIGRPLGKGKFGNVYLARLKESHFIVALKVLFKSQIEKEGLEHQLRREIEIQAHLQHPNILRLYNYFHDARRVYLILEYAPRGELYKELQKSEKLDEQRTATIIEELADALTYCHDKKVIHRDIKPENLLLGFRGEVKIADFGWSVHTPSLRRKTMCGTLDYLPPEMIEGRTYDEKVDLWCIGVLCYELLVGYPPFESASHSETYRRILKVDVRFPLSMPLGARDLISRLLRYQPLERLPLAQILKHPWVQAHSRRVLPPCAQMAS
PAK5(h), sequence (Q9P286 whole entry): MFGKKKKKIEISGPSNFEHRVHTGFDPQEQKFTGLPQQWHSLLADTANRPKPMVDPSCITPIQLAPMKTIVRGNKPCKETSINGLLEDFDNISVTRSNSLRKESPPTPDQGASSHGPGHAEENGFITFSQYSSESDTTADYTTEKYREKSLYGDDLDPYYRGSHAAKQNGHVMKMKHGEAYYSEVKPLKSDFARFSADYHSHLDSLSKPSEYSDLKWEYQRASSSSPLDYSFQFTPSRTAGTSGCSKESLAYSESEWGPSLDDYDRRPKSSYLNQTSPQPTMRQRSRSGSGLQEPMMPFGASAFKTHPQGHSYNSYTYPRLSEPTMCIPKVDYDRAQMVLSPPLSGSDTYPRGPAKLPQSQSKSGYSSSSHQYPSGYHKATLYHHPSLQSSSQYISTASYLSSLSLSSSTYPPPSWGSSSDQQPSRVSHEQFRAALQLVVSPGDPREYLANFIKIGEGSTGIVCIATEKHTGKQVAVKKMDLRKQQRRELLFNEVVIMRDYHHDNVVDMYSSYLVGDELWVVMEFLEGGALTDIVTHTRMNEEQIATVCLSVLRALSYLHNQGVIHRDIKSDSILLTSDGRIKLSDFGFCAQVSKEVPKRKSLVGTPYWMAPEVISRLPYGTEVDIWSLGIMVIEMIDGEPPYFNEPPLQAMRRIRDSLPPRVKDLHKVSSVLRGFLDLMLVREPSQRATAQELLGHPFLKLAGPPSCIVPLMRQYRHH
Txk(h), sequence (P42681 whole entry): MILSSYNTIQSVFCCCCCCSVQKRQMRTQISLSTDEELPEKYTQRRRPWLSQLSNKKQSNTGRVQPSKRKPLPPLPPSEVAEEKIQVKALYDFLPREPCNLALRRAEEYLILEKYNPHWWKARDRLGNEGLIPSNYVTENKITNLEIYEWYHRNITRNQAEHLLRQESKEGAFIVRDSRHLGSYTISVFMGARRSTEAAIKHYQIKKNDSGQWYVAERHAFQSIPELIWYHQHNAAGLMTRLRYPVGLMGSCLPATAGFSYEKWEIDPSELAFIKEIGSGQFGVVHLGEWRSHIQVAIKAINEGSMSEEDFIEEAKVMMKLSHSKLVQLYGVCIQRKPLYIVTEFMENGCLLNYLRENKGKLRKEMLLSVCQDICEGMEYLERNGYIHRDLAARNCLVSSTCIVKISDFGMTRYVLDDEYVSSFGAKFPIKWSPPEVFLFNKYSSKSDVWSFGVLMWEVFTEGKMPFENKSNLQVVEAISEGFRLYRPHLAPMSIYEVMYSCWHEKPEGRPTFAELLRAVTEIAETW
MAPK2(h), sequence (P28482 whole entry): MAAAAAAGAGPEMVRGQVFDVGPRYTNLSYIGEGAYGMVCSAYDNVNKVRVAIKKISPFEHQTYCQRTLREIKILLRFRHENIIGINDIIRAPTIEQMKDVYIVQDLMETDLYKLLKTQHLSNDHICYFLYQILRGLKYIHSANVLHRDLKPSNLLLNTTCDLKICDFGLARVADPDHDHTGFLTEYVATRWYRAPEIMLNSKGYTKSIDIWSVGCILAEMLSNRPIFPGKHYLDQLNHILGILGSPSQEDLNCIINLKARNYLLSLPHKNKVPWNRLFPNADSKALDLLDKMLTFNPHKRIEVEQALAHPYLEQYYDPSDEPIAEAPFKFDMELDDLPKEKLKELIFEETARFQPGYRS
BTK(h), sequence (Q06187 whole entry): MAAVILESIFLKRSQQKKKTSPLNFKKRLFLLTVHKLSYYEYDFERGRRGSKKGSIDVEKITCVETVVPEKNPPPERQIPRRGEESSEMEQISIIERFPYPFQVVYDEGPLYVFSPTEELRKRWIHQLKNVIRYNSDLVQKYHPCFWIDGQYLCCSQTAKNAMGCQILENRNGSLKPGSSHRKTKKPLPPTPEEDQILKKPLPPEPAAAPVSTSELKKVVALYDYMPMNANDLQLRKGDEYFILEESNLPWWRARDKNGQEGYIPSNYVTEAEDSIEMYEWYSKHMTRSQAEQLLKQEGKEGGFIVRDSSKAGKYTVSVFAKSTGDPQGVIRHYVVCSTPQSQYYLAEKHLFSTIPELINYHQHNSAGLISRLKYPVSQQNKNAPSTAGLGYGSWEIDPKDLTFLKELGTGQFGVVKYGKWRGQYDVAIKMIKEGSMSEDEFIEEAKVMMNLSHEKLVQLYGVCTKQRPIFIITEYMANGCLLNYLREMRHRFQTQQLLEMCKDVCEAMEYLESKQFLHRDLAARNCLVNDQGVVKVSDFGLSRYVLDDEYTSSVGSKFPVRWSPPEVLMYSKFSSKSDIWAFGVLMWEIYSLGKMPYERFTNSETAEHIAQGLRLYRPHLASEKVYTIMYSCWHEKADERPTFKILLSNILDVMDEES
T13 sequence (O14733 whole entry): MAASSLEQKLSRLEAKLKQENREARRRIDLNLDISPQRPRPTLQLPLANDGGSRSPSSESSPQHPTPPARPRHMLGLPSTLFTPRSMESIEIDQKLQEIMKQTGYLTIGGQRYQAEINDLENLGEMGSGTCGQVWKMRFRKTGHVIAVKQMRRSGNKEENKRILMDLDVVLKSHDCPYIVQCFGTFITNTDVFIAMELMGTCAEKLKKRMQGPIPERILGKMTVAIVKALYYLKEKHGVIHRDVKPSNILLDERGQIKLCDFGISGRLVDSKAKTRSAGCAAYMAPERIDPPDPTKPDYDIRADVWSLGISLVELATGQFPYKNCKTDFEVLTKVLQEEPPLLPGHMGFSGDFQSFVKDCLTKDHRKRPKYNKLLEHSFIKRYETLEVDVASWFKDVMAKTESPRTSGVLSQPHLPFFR
Pim-2(h), sequence (Q9P1W9 whole entry): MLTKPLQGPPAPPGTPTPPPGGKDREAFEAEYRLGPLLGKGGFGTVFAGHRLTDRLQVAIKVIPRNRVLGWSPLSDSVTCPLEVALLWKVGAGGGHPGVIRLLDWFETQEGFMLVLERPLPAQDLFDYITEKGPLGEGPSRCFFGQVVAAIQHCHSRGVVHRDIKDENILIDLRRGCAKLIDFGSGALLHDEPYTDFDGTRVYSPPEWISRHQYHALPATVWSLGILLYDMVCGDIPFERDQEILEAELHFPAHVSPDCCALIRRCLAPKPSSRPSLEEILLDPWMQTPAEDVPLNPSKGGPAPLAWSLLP

Activity % (BTK(h)): 37%
Activity % (PDGFRβ(h)): 89%
Activity % (AMPKα1(h)): 17%
Activity % (Lyn(m)): 1%
Activity % (CaMKIV(h)): 106%
Activity % (Ab1(Q252H)(h)): −2%
Activity % (Lyn(h)): 5%
Activity % (EGFR(L861Q)(h)): 52%
Activity % (IRR(h)): 6%
Activity % (mTOR/FKBP12(h)): 63%
Activity % (Pim-2(h)): 96%
Activity % (Arg(m)): −2%
Activity % (Txk(h)): 20%
Activity % (TAO2(h)): 6%
Activity % (SAPK2a(T106M)(h)): 95%
Activity % (Aurora-C(h)): 21%
Activity % (IKKβ(h)): 109%
Activity % (MSK2(h)): 90%
Activity % (PKC ? (h)): 99%
Activity % (JAK3(h)): 3%
Activity % (MAPK2(h)): 105%
Activity % (Src(T341M)(h)): 1%
Activity % (Met(Y1248H)(h)): 16%
Activity % (DMPK(h)): 102%
Activity % (Aurora-A(h)): 7%
Activity % (JAK2(h)): 8%
Activity % (SIK(h)): 33%
Activity % (Mnk2(h)): 92%
Activity % (Pyk2(h)): 59%
Activity % (MRCKα(h)): 102%
Activity % (P1k1(h)): 107%
Activity % (PAK4(h)): 70%
Activity % (Snk(h)): 97%
Activity % (PDK1(h)): 103%
Activity % (F1t3(h)): 1%
Activity % (MKK7β(h)): 97%
Activity % (MKK4(m)): 100%
Activity % (PAK5(h)): 29%
Activity % (NEK7(h)): 98%
Activity % (BrSK2(h)): 44%
Compound: Cc1cc2c(F)c(Oc3nc(Nc4cc(C5CC5)[nH]n4)cc(N4CCN(C)CC4)n3)cc(F)c2[nH]1 [NTW-3475]
